Molecular target: T1, splicing factor 3A subunit 3 (SF3A3) (Homo sapiens, UniProt Q12874)
T1 sequence (Q12874 1-501): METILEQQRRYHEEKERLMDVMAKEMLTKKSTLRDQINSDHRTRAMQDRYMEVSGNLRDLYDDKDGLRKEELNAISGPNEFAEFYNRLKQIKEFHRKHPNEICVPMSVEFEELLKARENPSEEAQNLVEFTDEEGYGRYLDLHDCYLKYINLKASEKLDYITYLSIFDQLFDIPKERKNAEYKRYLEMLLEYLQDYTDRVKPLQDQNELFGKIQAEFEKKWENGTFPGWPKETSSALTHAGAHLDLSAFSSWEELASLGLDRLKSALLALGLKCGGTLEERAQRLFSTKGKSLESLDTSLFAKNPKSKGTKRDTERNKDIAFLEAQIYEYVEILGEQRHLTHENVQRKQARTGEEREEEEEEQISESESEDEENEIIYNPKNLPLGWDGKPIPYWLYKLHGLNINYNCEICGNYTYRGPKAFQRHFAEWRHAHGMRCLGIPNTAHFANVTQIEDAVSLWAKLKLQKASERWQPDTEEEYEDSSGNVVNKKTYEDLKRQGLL
Assay: SPR (Biacore 8K, immobilized purified human SF3A3, steady-state affinity); supported by pulldown mass spectrometry
Format: binding

Compound: S=C=NCCc1ccccc1 [PEITC]
- Kd: 10.1 µM

— publication PMC12463058, “SF3A3 Drives Tumorigenesis in Endometrial Cancer by Enhancing c‐FOS Expression and Represents a Potential Therapeutic Target” (Advanced Science, 2025)
